Experimental data taken from ChEMBL document CHEMBL1157539, “Thousands of chemical starting points for antimalarial lead identification” (Nature, 2010).

test system: Plasmodium falciparum; assay: GSK_TCMDC: Inhibition of Plasmodium falciparum 3D7 in whole erythrocytes, using parasite LDH activity as an index of growth.; format: functional, organism-based; conditions: Plasmodium falciparum, 3D7

| SMILES | XC50 [nM] |
| --- | --- |
| Cc1ccc2nc(C)cc(N/N=C/c3ccccc3[N+](=O)[O-])c2c1 | 166 |
| Cc1[nH]c(C)c(-c2ccc(Oc3ccc(C(F)(F)F)cc3)cc2)c(=O)c1Br | 206 |
| Cc1n[nH]c(C)c1C1CCN(CC2CCC(NC(=O)/C=C/c3ccc(Cl)c(Cl)c3)CC2)CC1 (centres undefined) | 729 |
| COc1cc2c(cc1S(=O)(=O)c1ccc(OCc3ccc(Cl)cc3)cc1)CCN(Cc1ccc(NC(C)=O)s1)CC2 | 919 |
| Cc1cccc2nc(-c3ccc(-c4ccc(NC(=O)Nc5ccc(F)c(F)c5F)cc4)s3)[nH]c12 | 176 |
| CCC(CO)NCC(O)Cn1c2ccc(Cl)cc2c2cc(Cl)ccc21 (centres undefined) | 768 |
| O=C(Nc1cccc(Cl)c1Cl)Nc1ccnc2ccccc12 | 745 |
| COCCNC(=O)C1CCN(C(c2ccc(Cl)cc2)c2ccc(Cl)cc2)CC1 | 553 |
| CCCCNC(=O)[C@@H]1CCCN1C(=O)c1ccc(O)c(-c2ccc(Cl)c(Cl)c2)c1 | 751 |
| COc1ccc(CC(C)NCC(O)c2cccc(Cl)c2)cc1C (centres undefined) | 902 |
| Cc1[nH]c(C)c(-c2ccc(-c3ccc(OC(F)(F)F)cc3)nc2)c(=O)c1Cl | 201 |
| COc1cc(Cc2cnc(N)nc2N)ccc1OCc1ccc(F)c(F)c1 | 910 |
| CC1(C)NC(N)=NC(=N)N1OCCc1ccccc1 | 3.2 |
| CCCC[C@@H](C(=O)NCc1ccccc1C(F)(F)F)N1C(=O)CCC1C(=O)Nc1ccc([N+](=O)[O-])cc1 (some centres undefined) | 848 |
| O=S(=O)(c1c(Cl)cc(Cl)cc1Cl)N1CCCCC(c2ccc(Cl)cc2)=N1 | 402 |
| CN(C)CCCOc1ccc(-c2nc(-c3ccc4c(c3)CCC4=NO)c(-c3ccncc3)[nH]2)cc1 | 832 |
| O=C(O[C@@H]1CN[C@H](C#Cc2cc3c(Nc4ccc5c(cnn5Cc5ccccc5)c4)ncnc3s2)C1)N1CCCC1 | 424 |
| O=C(Nc1ccc(Cl)c(Cl)c1)N1CCC(CNCc2cccc([N+](=O)[O-])c2)CC1 | 979 |
| C[C@@H](Nc1nc(NCc2ccccc2)c2sccc2n1)c1ccccc1 | 919 |
| CCC(C)CN1CCCN(c2ccc(NC(=O)c3cccs3)cc2)CC1 (centres undefined) | 802 |
| O=C(/C=C/c1ccc(Cl)c(Cl)c1)NCCCCCN1CCN(C(=O)Nc2ccc(C(F)(F)F)cc2)CC1 | 721 |
| N#Cc1cccc(NC(=O)NC2CCN(CCCCCNC(=O)C3CC3c3ccc(Cl)c(Cl)c3)CC2)c1 (centres undefined) | 785 |
| NS(=O)(=O)Cc1cccc(-c2ccnc3ccc(-c4cccc(S(N)(=O)=O)c4)cc23)c1 | 1560 |
| NC1=NC(c2ccccc2)(c2ccccc2)C(=O)N1CC1CCC1 | 753 |
| COc1cc(CN2CCC(NC(=O)[C@H](Cc3ccccc3)NC(=O)Nc3ccc(Oc4ccccc4)cc3)C2)ccc1O (some centres undefined) | 810 |

| SMILES | XC50 [nM] |
| --- | --- |
| COc1cc(C(=O)N2CCN(C(C)C)CC2)ccc1CN(C)CCCN1CCN(c2cccc(Cl)c2Cl)CC1 | 776 |
| COc1ccc(C)cc1NC(=O)CSc1nc2cccnc2n1C1CCCCC1 | 544 |
| CCCCCCCc1cc(O)c2c3c(c(=O)oc2c1)CN(C)CC3 | 144 |
| N[C@@H](Cc1ccc(O)cc1)C(=O)NC(c1ccccc1)c1c(O)ccc2ccccc12 (some centres undefined) | 694 |
| CCn1c2ccccc2c2cc(Cc3cnc(N)nc3N)ccc21 | 221 |
| COc1ccc(S(=O)(=O)NC2CCN(c3ccnc4cc(Cl)ccc34)C2)cc1 (centres undefined) | 493 |
| CC(C)c1cccc(C(C)C)c1NC(=O)NNC(=O)c1ccc(CCN2CCC(c3nc(COCC(F)(F)F)c(-c4ccc(F)cc4)o3)CC2)cc1 | 1090 |
| CCC1CCCCN1S(=O)(=O)c1ccc(NC(=O)c2cc(C)on2)cc1 (centres undefined) | 1240 |
| CC1=C(C(=O)Nc2cc3cn[nH]c3cc2F)C(c2cccc(NS(C)(=O)=O)c2)CC(=O)N1 (centres undefined) | 434 |
| CC[C@H]1CN2CC[C@H]1C[C@H]2[C@H](O)c1cc(-c2cccc(Cl)c2)nc2ccc(OC)cc12 | 168 |
| CCOC(=O)C1=C(C)NC(Cn2ccnc2)=C(C(=O)OCC)C1c1ccc(C(C)(C)C)cc1 (centres undefined) | 807 |
| O=C(Nc1ccc(C(=O)N2CCN(CCN3CCN(c4cccc(C(F)(F)F)c4)CC3)CC2)cc1)c1cc(Cl)cc(Cl)c1 | 827 |
| COc1ccc(-c2onc(C(F)(F)F)c2-c2cc3ccccc3o2)c(O)c1 | 863 |
| CC(C)Nc1cc(C(=O)N[C@@H](Cc2ccccc2)[C@H](O)CNCc2cccc(C(F)(F)F)c2)c(F)c(N2CCCCS2(=O)=O)c1 | 794 |
| OC(CNc1ccnc(Nc2cccc(OCCCN3CCOCC3)c2)n1)c1ccccc1 (centres undefined) | 924 |
| CCCCNCc1ccc(-c2nc(CN(CCCn3ccnc3)C(=O)C3COc4ccccc4O3)cs2)cc1 (centres undefined) | 892 |
| O=c1nc(NCCCCCN2CCC(c3c[nH]c4ccccc34)CC2)[nH]cc1Cc1ccc(Cl)c(Cl)c1 | 969 |
| O=C(NC1CCCCC1)N(CCCn1ccnc1)Cc1csc(-c2ccc(CNCc3ccccc3)cc2)n1 | 843 |
| COc1ccc(-c2cccc(NC(=O)c3cccc(C#N)c3)c2)cc1CN1CCNCC1 | 728 |
| CC(=O)N1N=C(c2ccccc2)Sc2c1nc(-c1ccc(Cl)cc1)n2C(C)=O | 986 |
| Cc1cc(O)c2c(c1)OC(C)(C)C=C2C1=CCN(Cc2ccccc2)CC1 | 791 |
| OC(CN1CCN(c2cccc(Cl)c2)CC1)C(c1ccccc1)c1ccccc1 (centres undefined) | 1150 |
| COc1ccc(N(C)Cc2cnc3nc(N)nc(N)c3n2)cc1 | 284 |
| c1ccc2[nH]c(-c3ccc(-c4ccc(CN5CCCCC5)cc4)s3)nc2c1 | 742 |
| O=C(C1CCN(c2nnnn2-c2ccccc2)CC1)N1CCc2ccccc2C1 | 712 |

| SMILES | XC50 [nM] |
| --- | --- |
| COc1nc2c(N3CCN(CCNCc4ccc5c(n4)NC(=O)CO5)CC3)ccnc2cc1F | 758 |
| O=C(Nc1ccc(N2CCNCC2)cc1)c1ccn2ncc(-c3cccc(Cl)c3)c2n1 | 922 |
| Cn1cnc2c(Nc3ccncc3)nc(-c3ccc4ccccc4c3)nc21 | 867 |
| O=C(Nc1cccc(CN2CCN(C(=O)c3cccc(Cl)c3)CC2)c1)c1ccco1 | 438 |
| O=C(Cc1n[nH]c(=O)c2ccccc12)Nc1cccc(C(=O)Nc2cccc(C(F)(F)F)c2)c1 | 169 |
| CS(=O)(=O)NCCCNCc1cccc(-c2ccc(-c3nc4ccccc4[nH]3)s2)c1 | 1080 |
| Cc1cc(NC(=O)Nc2ccc(Oc3ccccc3)cc2)c2ccccc2n1 | 840 |
| FC(F)(F)c1cccc(CNCC2CCN(Cc3ccc4c(c3)OCO4)CC2)c1 | 725 |
| O=C(NCCN1CCOCC1)c1csc(C2CCCN(C(=O)c3ccc(O)c(-c4cc(Cl)cc(Cl)c4)c3)C2)n1 (centres undefined) | 1030 |
| Cc1ccc(/C=C/C(=O)NCCCCCN2CCN(C(=O)Nc3ccc(Cl)c(C(F)(F)F)c3)CC2)cc1 | 1110 |
| CNC(=N)c1ccc(NC(=O)Nc2ccc(C(=N)NC)cc2)cc1 | 577 |
| O=C(NCc1ccc(Cl)c(Cl)c1)c1ccc(-c2nc3ccc(F)cc3[nH]2)cc1 | 1030 |
| CCn1c(-c2nonc2N)nc2c(-c3cccc(Cl)c3)ncc(OCCCNCCc3c[nH]cn3)c21 | 983 |
| COc1ccc(NC(=O)[C@H](Cc2ccccc2)Nc2nc(NCCN3CCCC3)ncc2C)cc1 | 988 |
| CC(C)CN1C(=O)C(c2ccc(F)c(F)c2)=C(O)C1c1ccccc1 (centres undefined) | 185 |
| Cc1cccc2nc(-c3cccc(-c4ccc(NC(=O)c5cnccc5C(F)(F)F)cc4)c3)[nH]c12 | 695 |
| CC(=O)OCCN1C(=O)c2ccc3c4c(ccc(c24)C1=O)C(=O)N(CCOC(C)=O)C3=O | 238 |
| COc1ccc(Nc2nccc(N3CCC(NC(=O)C(C)c4ccc(Cl)cc4)CC3)n2)cc1 (centres undefined) | 934 |
| COc1ccc(-c2nc(NC(=O)Cc3coc4cc(OC)ccc34)sc2C)cc1 | 609 |
| CC(C)CNc1c2c(nc3cnn(-c4c5c(nc6cn[nH]c46)CCCC5)c13)CCCC2 | 795 |
| CN(C)C(=O)CC(=O)NCc1cccc(Cl)c1 | 711 |
| CC(C)Cc1nc(N)nc(N)c1-c1ccc(Cl)cc1 | 145 |
| CCOC(=O)c1cnc2cc(N3CCCC3)c(Cl)cc2c1OCC | 108 |
| COc1cc(OC)c2c(C)cc(NCCCN3CCOCC3)nc2c1 | 1070 |
| Cc1n[nH]c2ccc(-c3cc(OC[C@@H](N)Cc4ccccc4)cnc3-c3cc4ccccc4s3)cc12 | 810 |

| SMILES | XC50 [nM] |
| --- | --- |
| COc1cc(Nc2ccnc3cc(-c4nccs4)ccc23)ccc1OCCCc1nc2ccccc2[nH]1 | 237 |
| Cc1[nH]c2c(NCc3ccc(F)cc3)nccc2c1C | 1360 |
| Cc1cccc(N2C(N)=NC(N)=NC2(C)C)c1C | 759 |
| CCCc1c(Cl)cc(CNCCCNc2nc3ccncc3[nH]2)cc1Cl | 744 |
| COC(=O)C(=O)c1c(-c2ccccc2)c(-c2ccc(OC)c(OC)c2)c2c3cc(OC)c(OC)cc3ccn12 | 636 |
| O=C(CC1CCCC1)Nc1ccc2c(c1)CCC2 | 868 |
| CC(C)C(=O)Nc1c(F)cc(F)cc1CCc1ccc(O)cc1 | 504 |
| CCc1c(CCNCCCCCCNCc2ccc3c(c2CC)OCO3)ccc(OC)c1OC | 246 |
| COc1ccc2ncc(OC)c(CCN3CC[C@@H](NCc4ccc5c(n4)NC(=O)CS5)[C@H](O)C3)c2n1 | 831 |
| COc1ccc(NC(=O)Nc2cc(C)nc3cccnc23)cc1Cn1ccnc1 | 736 |
| O=C(/C=C/c1ccc(Cl)c(Cl)c1)NCCCCCN1CCN(C(=O)Nc2ccc(OC(F)F)cc2)CC1 | 945 |
| CC12CCC(C(=O)N(CC(O)Cn3c4ccc(Cl)cc4c4cc(Cl)ccc43)C1=O)C2(C)C (centres undefined) | 844 |
| Cc1ccc(Oc2ncccc2C(=O)Nc2cccc3cccnc23)c(C)c1 | 225 |
| COc1ccccc1CNC(=O)c1cc(OC)c(OC)cc1NC(=O)c1cccs1 | 1440 |
| O=C(NC1CCN(CCC[C@]2(c3ccc(Cl)c(Cl)c3)CCCN(C(=O)c3ccccc3)C2)CC1)c1ccc(F)cc1 | 883 |
| Cc1cc(NC(=O)Nc2ccc(C(C)(C)C)cc2)c2ccccc2n1 | 719 |
| Cc1cccc(NC(c2cccs2)c2c(NC(=O)c3ccccc3)sc(C)c2C)n1 (centres undefined) | 832 |
| O=C(c1cc(-c2cccs2)n[nH]1)N1CCN(S(=O)(=O)c2ccc(Cl)s2)CC1 | 868 |
| CN(Cc1cccc(F)c1)C1CCCN(c2cc(NC(=O)c3ccccc3)ccn2)C1 (centres undefined) | 919 |
| COC(=O)c1ccc(NC(=O)Nc2cccc(CCNCc3ccccc3)c2)cc1 | 867 |
| CC(CN1CCN(C)CC1)C(=O)Nc1cccc(-c2ccc(-c3nc4cc(F)ccc4[nH]3)cc2)c1 (centres undefined) | 807 |
| Cc1cccc2nc(-c3cccc(-c4ccc(NC(=O)CS(C)(=O)=O)cc4)c3)[nH]c12 | 1000 |
| CC1(C)CC2CC(C)(CN2C(=O)c2cc(C(C)(C)C)nn2Cc2ccccc2)C1 (centres undefined) | 1090 |
| O=C1Nc2cccc3c2C1(CCCN1CCC(c2c[nH]c4cc(C(F)(F)F)ccc24)CC1)CCC3 (centres undefined) | 961 |
